Results: patent publication US20240180909A1, “Dosing Regimens for Elagolix” (AbbVie Inc., priority 2018, published 2024)

Tested on: premenopausal women with heavy menstrual bleeding associated with uterine fibroids
Assay: Twelve month study with 300 mg BID (initial studies and extension study), heavy menstrual bleeding responder rate
Format: in vivo, human
Experimental: This study was a randomized, double-blind, multicenter, extension study designed to evaluate the efficacy and safety of elagolix alone and in combination with an exemplary low-dose hormone (add-back) therapy (estradiol (“E2”) 1.0 mg/norethindrone acetate (“NETA”) 0.5 mg) in premenopausal women with heavy menstrual bleeding associated with uterine fibroids for up to 12 months total (an initial 6 months on active treatment in one of two replicate initial (i.e., pivotal) studies and an additional 6 months in this extension study.
Subjects who received elagolix 300 mg twice daily or elagolix 300 mg twice daily in combination with E2/NETA in the initial studies continued to receive the same treatment (n=94 and 206, respectively) while subjects who received placebo in the initial studies were randomized in an equal ratio to one of the two treatment groups (elagolix 300 mg BID (n=56) or elagolix 300 mg BID+E2/NETA (n=54)).
The primary efficacy endpoint was the percentage of subjects meeting the responder criteria: a) menstrual blood loss (MBL) volume<80 mL during the final, AND b) 50% or greater reduction in MBL volume from baseline to the final month. […]

Hypoestrogenic effects, such as hot flush and reduction in bone mineral density (initial and extension studies, elagolix 300 mg BID): observed
SMILES: COc1cccc(-c2c(C)n(Cc3c(F)cccc3C(F)(F)F)c(=O)n(C[C@H](NCCCC(=O)O)c3ccccc3)c2=O)c1F [Elagolix, 4-((R)-2-[5-(2-fluoro-3-methoxy-phenyl)-3-(2-fluoro-6-trifluoromethyl-benzyl)-4-methyl-2,6-dioxo-3,6-dihydro-2H-pyrimidin-1-yl]-1-phenyl-ethylamino)-butyric acid]
safety signals (up to twelve months of treatment): no new safety signals
